Here are results for 3 molecules from publication PMC8620685, “Effect of Selected Silyl Groups on the Anticancer Activity of 3,4-Dibromo-5-Hydroxy-Furan-2(5H)-One Derivatives” (Pharmaceuticals, 2021).

One experiment deals with HT-29. The experiment in a line: MTT assay, HT-29. It is filed as cell-based. The following applies: Homo sapiens, HT-29, 72 h, read-out: IC50 (cytotoxicity), HT-29. How it is done: (§1) The in vitro antitumor activities of the MBA and its derivatives (Table 2) were assayed against a panel of human cancer cell lines (HCT116, HCT-116 ^−/−p53, HT-29, MCF-7, SJSA-1, U2OS, HepG2 and Hep3B) using the MTT assay. As a reference drug we used 5-fluorouracil (5-FU). […] On the basis of in vitro antiproliferative activities, compounds 3b and 3c were selected for further mechanistic studies in the HCT-116 cell line.
(§2) Human cells lines: colon cancer (HCT-116 wt, HT-29), non-small lung carcinoma (A549), and bronchial epithelial cells (BEAS-2B) were obtained from American Type Culture Collection (ATCC, Manassas, VA, USA). Isogenic cell line HCT 116 p53^−/− (deleted both p53 alleles) were a gift from Dr. Bert Vogelstein. Other cell lines, namely MCF-7, SJSA-1, U2OS, HepG2, and Hep3B were received from the collection stored at Centre of Biotechnology of Silesian University of Technology. All cells were grown in DMEM with a high glucose medium (Sigma-Aldrich, Taufkirchen, Germany) supplemented with 10% (v/v) inactivated fetal bovine serum (FBS) (EURx, Gdańsk, Poland) and 1% antibiotics (10,000 μg/mL of streptomycin and 10,000 units/ml of penicillin) (Sigma-Aldrich, Taufkirchen, Germany) at 37 °C in humidified 5% CO2. The maximum concentration of DMSO in the culture media was 0.4%.
(§3) 5 × 10^3 cells per well for the MCF-7 cell line and 2.5 × 10^3 cells per well for the other cell lines were seeded in 96-well plates to adhere for 24 h. Afterward, the cells were treated with tested compounds. After 72 hours of incubation, 50 μL 0.5 mg/ml solution of MTT (3-(4,5-dimethylthiazol-2-yl)-2,5-diphenyl-2H-tetrazolium bromide) were added to each well and the plates were incubated for 3 h at 37 °C. Next, the MTT solution was removed from the plates and formed formazan crystals were dissolved in 2-propanol (Avantor Performance Materials, Gliwice, Poland) containing 0.04 M hydrochloric acid (Avantor Performance Materials, Gliwice, Poland). The absorbance was measured at 570 nm wavelength using a multiwall plate reader (BioTek, Winooski, VT, USA). The experiment was performed at a minimum of 3 independent replicates. Cell viability was set as a percentage versus vehicle control. IC50 was defined as a concentration of a drug that decreased cell viability by 50% relative to the untreated control.
A general note: Tetrazolium dyes change colour on reduction, which living cells bring about.

For experiment [1], the system named is HCT-116 cells. The experiment in a line: Clonogenic (colony-formation) assay. Particulars: HCT-116, 10 μM for 24 h, then 10 days in drug-free medium. Format: cell-based, human. The method, then:
We next sought to investigate the effects of the MBA and compound 3b clonogenic potential of the HCT-116 cell line. The cells were treated with compounds 1 and 3b at 10 μM for 24 h. After harvesting, the cells were re-seeded and cultivated for another 10 days in a drug-free medium.
The HCT116 wt cells (5 × 10^4 cells/well) were plated in 6-well plates (Nunc, ThermoFisher, Waltham, USA) and treated with the tested compounds for 24 and 72 h. Cells were harvested by trypsinization and then re-seeded on the new 6-well plate (Nunc, ThermoFisher, Waltham, MA, USA) with a density of 2 × 10^3 cells/well. After 10 days the cells were washed with cold PBS (Sigma-Aldrich, Taufkirchen, Germany), fixed in ice-cold ethanol (−20 °C) for 3 minutes, air-dried, washed again with cold PBS and stained with 0.01% crystal violet (Sigma-Aldrich, Taufkirchen, Germany) in dH2O (deionized water) for 15 min. Next the plates were washed in dH2O and allowed to dry. Colonies were counted with a microscope (Zeiss, Oberkochen, Germany). Aggregates of 30 cells or more were considered as colonies. Photos were made using the G:Box transilluminator (Syngene, Cambridge, UK).

A further experiment relates to MCF-7. The experiment in a line: MTT assay, MCF-7. Particulars: Homo sapiens, MCF7, 72 h, read-out: IC50 (cytotoxicity), MCF-7, MTT, 72 h incubation. It is filed as cell-based, human. The method, then:
as §1, §2, §3

The next experiment has as its system SJSA-1. The experiment in a line: MTT assay, SJSA-1. Format: cell-based. Particulars: Homo sapiens, read-out: IC50 (cytotoxicity), SJSA-1. How it is done:
as §1, §2, §3

Experiment [2] relates to HCT-116 cells. The experiment in a line: Annexin V-FITC/PI apoptosis assay. It is filed as cell-based, human. How it is done:
To verify this thesis, we utilized annexin-V/PI double staining of cells, which were subsequently subjected to flow cytometric analysis.
The HCT 116 cells were seeded in 6-well plate (Nunc, ThermoFisher, Waltham, MA, USA) at a density of 5 × 10^4 cells/well and allowed to attach. After 24 h the medium was replaced with tested compounds. The cells were then incubated for 24 h at 37 °C. Next, both floating and adherent cells were harvested and centrifuged at 600× g. The cells were washed with PBS (phosphate buffered saline) (Sigma-Aldrich, Taufkirchen, Germany) and we followed instructions from the manufacturer of the Annexin V-FITC Apoptosis Detection Kit (Biotool, Jupiter, FL, USA). Fluorescence was measured using a Becton Dickinson FACS Aria III sorter (BD Company, San Diego, CA, USA). Experiments were repeated at least twice. Data were analyzed using FCE Express 7 Software (DeNovo Software, Pasadena, CA, USA).

The test system of the next experiment is HepG2. The experiment in a line: MTT assay, HepG2. It is filed as cell-based. The following applies: Homo sapiens, read-out: IC50 (cytotoxicity), HepG2. How it is done: as §1, §2
as §3, with “The experiment was performed at a minimum of 3 independent replicates. Cell viability was set as a percentage versus vehicle control. IC50 was defined as a concentration of a drug that decreased cell viability by 50% relative to the untreated control.” left out

Another experiment has as its system U2OS. The experiment in a line: MTT assay, U2OS. Format: cell-based. The following applies: Homo sapiens, 72 h, read-out: IC50 (cytotoxicity), U2OS. The method, then:
as §1, §2, §3

Experiment [3] deals with panel of human cancer cell lines (HCT116, HCT-116 −/−p53, HT-29, MCF-7, SJSA-1, U2OS, HepG2 and Hep3B). The experiment in a line: MTT assay, panel of human cancer cell lines. It is filed as cell-based. The following applies: 72 h incubation, read-out: IC50 range across all tested cancer cells. The method, then: as §1
Human cells lines: colon cancer (HCT-116 wt, HT-29), non-small lung carcinoma (A549), and bronchial epithelial cells (BEAS-2B) were obtained from American Type Culture Collection (ATCC, Manassas, VA, USA). Isogenic cell line HCT 116 p53^−/− (deleted both p53 alleles) were a gift from Dr. Bert Vogelstein. Other cell lines, namely MCF-7, SJSA-1, U2OS, HepG2, and Hep3B were received from the collection stored at Centre of Biotechnology of Silesian University of Technology. […]
5 × 10^3 cells per well for the MCF-7 cell line and 2.5 × 10^3 cells per well for the other cell lines were seeded in 96-well plates to adhere for 24 h. […] The absorbance was measured at 570 nm wavelength using a multiwall plate reader (BioTek, Winooski, VT, USA). […]

Molecules are shown by their SMILES. “Also recorded” adds a separate entry of the source. Like-named read-outs stand apart in the source and are kept apart here.

Usually IC50 stands for the concentration that gives 50% inhibition. Consider `O=C1OC(O)C(Br)=C1Br` (stereo not shown) [MBA, 3,4-dibromo-5-hydroxyfuran-2(5H)-one, reference compound], for which the half-maximal inhibitory concentration (IC50) in the experiment with HT-29 stood at 97.1 ± 6.6 µM; in the experiment on MCF-7, 142 ± 22.6 µM; in the experiment with SJSA-1 (SJSA-1, 72 h), 213 ± 8.8 µM; in the experiment with HepG2 (HepG2, 72 h), 91.7 ± 2.2 µM; with U2OS, 97.6 ± 1.1 µM. Also, in the experiment with HCT-116 cells [1], the “clonogenic potential (re-growth of colonies)” value was “attenuated the clonogenic potential of HCT-116 to a much less extent”. Also, the proapoptotic activity entry with HCT-116 cells [2] (20 μM, 24 h, HCT-116) is given as “negligible proapoptotic activity”.
Regarding `CC(C)(C)[Si](OC1OC(=O)C(Br)=C1Br)(c1ccccc1)c1ccccc1` (stereo not shown) [Compound 3c, 3,4-Dibromo-5-(tert-butyldiphenylsilyloxy)-furan-2(5H)-one], the half-maximal inhibitory concentration (IC50) with HT-29 was 3.9 ± 0.2 µM; in experiment [3], 3.9 to 65.6 µM; in the experiment with MCF-7, 10.9 ± 0.7 µM; with SJSA-1 (SJSA-1, MTT, 72 h incubation), 14.9 ± 1.5 µM; with U2OS, 10.2 ± 0.8 µM. In the experiment with HCT-116 cells [2] (20 μM, 24 h, HCT-116), the “apoptotic (death) cells in total, annexin-V+/PI− plus annexin-V+/PI+” value was 18.5%.
As for `CC(C)[Si](OC1OC(=O)C(Br)=C1Br)(C(C)C)C(C)C` (stereo not shown) [Compound 3b, 3,4-Dibromo-5-(triisopropylsilyloxy)-furan-2(5H)-one], the IC50 in the experiment with HT-29 was 7.3 ± 0.8 µM; in experiment [3], 7.3 to 21.3 µM; in the experiment with MCF-7, 7.7 ± 0.9 µM; in the experiment on SJSA-1 (SJSA-1, MTT, 72 h incubation) it was 9.9 ± 1.1 µM; with HepG2 (HepG2, MTT, 72 h incubation), 15.6 ± 1.2 µM; in the experiment with U2OS it was 9.3 ± 0.2 µM. Moreover, the “clonogenic potential (re-growth of colonies)” value in the experiment with HCT-116 cells [1] is recorded as “completely abolished the re-growth of HCT-116 colonies; also recorded: abolishes the clonogenic potential”. Further, the “apoptotic (death) cells in total, annexin-V+/PI− plus annexin-V+/PI+” value in the experiment with HCT-116 cells [2] (20 μM, 24 h, HCT-116) is on record as “roughly 30%”. Also, the “induction of apoptosis / cell death in HCT-116” value in the experiment with HCT-116 cells [2] (HCT-116, statement in discussion) is “rapidly triggered cell death”.
